Series [1] concerns the target VEGFR2 (KDR) (Homo sapiens (Human), UniProt P35968). Briefly: kinase inhibition, Mobility-Shift Assay. The series is classed as biochemical. The note with it: VEGFR2, 92 μM ATP.
Series [2] relates to lung cancer cell line (A549). Briefly: tumor cell proliferation inhibition (CTG), lung cancer cell line. The note with it: Homo sapiens, 72 hours. The series is classed as cell-based.
The subject of series [3] is prostatic cancer (PC-3). Briefly: tumor cell proliferation inhibition (CTG), PC-3. The series is classed as cell-based. The note with it: 72 hours.
The nature of series [4]: MTD toxicity test in rats. The series is classed as in vivo. The note with it: 150 mg/kg; for MTD toxicity test, clinical outcome: rat, in vivo; for autopsy results of organs: rats, QD, 14 days, heart, liver, lungs, kidneys, stomach, intestines and other organs.
Series [5] addresses RET (Homo sapiens (Human), UniProt P07949). Briefly: kinase inhibition, Mobility-Shift Assay. The series is classed as biochemical. The note with it: 23 μM ATP.
The test system of series [6] is cervical cancer cell lines (Hela). Briefly: tumor cell proliferation inhibition (CTG), cervical cancer cell line. The note with it: Homo sapiens, 72 hours. The series is classed as cell-based.
The subject of series [7] is gastric cancer cell line (SNU16). Briefly: tumor cell proliferation inhibition (CTG), gastric cancer cell line. In kind it is cell-based. The note with it: Homo sapiens, SNU-16, 72 hours, read-out: SUN16 IC50.
Series [8] relates to pancreatic cancer cell line (BXPC3). Briefly: tumor cell proliferation inhibition (CTG), pancreatic cancer cell line. The note with it: Homo sapiens, BXPC-3, 72 hours. The series is classed as cell-based.
In series [9] the target is FGFR2 (Homo sapiens (Human), UniProt P21802). Briefly: kinase inhibition, Mobility-Shift Assay. The series is classed as biochemical. The note with it: 1.9 μM ATP.
For series [10], the target named is hERG potassium channels (Homo sapiens (Human), UniProt Q12809). Briefly: in vitro inhibitory effect of hERG, whole-cell patch clamp. In kind it is cell-based. The note with it: whole-cell recording, room temperature. A general note: The hERG channel carries a current that helps repolarise heart muscle cells.
Series [11] deals with leukemia cell line (K562). Briefly: tumor cell proliferation inhibition (CTG), leukemia cell line. The series is classed as cell-based. The note with it: Homo sapiens, 72 hours.
Series [12] addresses VEGFR3 (FLT4) (Homo sapiens (Human), UniProt P35916). Briefly: kinase inhibition, Mobility-Shift Assay. In kind it is biochemical. The note with it: 84 μM ATP.
The subject of series [13] is BXPC3, SNU16, Hep3B 2.1-7 subcutaneous tumors. Briefly: tumor suppression in nude mice with subcutaneously transplanted tumors. The series is classed as in vivo. The note with it: BXPC3, SNU16, Hep3B 2.1-7 transplants, within 3-4 weeks. An excerpt: These preferred compounds (e.g., IIIb-08, IIIb-09, IIIb-45, IIIb-50, IIIb-55, IIIb-56, IIIb-57, IIIb-58, IIIb-60, IIIb-61, IIIb-65) are currently being used to […] in nude mice subcutaneously transplanted with pancreatic cancer cell line (BXPC3), gastric cancer cell line (SNU16), liver cancer cell line (Hep3B 2.1-7) and other tumor suppressive effects have been observed in vivo, the tumor suppression rate of subcutaneous tumors in nude mice could reach 80-110% within 3-4 weeks. […] Therefore, the preferred compounds “IIIb-08, IIIb-09, IIIb-45, IIIb-50, IIIb-55, IIIb-56, IIIb-57, IIIb-58, IIIb-60, IIIb-61, IIIb-65” designed and synthesized by the present invention not only have better inhibitory activity, but also have better safety and drug-forming properties, which are valuable for further preclinical studies such as pharmacotoxicology and clinical trials.

Series [14] has as its system kidney cancer cell line (Caki-1). Briefly: tumor cell proliferation inhibition (CTG), kidney cancer cell line. The note with it: Homo sapiens, 72 hours, read-out: Caki-1 (renal cancer) IC50. The series is classed as cell-based.
Series [15] concerns hepatocellular carcinoma cell line (Hep3B 2.1-7). Briefly: tumor cell proliferation inhibition (CTG), hepatocellular carcinoma cell line. The series is classed as cell-based. The note with it: Homo sapiens, 72 hours.
Series [16] has as its target VEGFR1 (FLT1) (Homo sapiens (Human), UniProt P17948). Briefly: kinase inhibition, Mobility-Shift Assay. The series is classed as biochemical. The note with it: 278 μM ATP.

SMILES strings stand for the structures.

Consider four compounds from patent publication US11912663B2, “Multi-targeted tyrosine kinase inhibitors and their pharmaceutical uses” (Shanghai AB PharmaTech Ltd., priority 2021, dated 2024).

For orientation: IC50 means the concentration needed to halve the response being measured.

Sequence of VEGFR2 (KDR) (P35968 20-1356): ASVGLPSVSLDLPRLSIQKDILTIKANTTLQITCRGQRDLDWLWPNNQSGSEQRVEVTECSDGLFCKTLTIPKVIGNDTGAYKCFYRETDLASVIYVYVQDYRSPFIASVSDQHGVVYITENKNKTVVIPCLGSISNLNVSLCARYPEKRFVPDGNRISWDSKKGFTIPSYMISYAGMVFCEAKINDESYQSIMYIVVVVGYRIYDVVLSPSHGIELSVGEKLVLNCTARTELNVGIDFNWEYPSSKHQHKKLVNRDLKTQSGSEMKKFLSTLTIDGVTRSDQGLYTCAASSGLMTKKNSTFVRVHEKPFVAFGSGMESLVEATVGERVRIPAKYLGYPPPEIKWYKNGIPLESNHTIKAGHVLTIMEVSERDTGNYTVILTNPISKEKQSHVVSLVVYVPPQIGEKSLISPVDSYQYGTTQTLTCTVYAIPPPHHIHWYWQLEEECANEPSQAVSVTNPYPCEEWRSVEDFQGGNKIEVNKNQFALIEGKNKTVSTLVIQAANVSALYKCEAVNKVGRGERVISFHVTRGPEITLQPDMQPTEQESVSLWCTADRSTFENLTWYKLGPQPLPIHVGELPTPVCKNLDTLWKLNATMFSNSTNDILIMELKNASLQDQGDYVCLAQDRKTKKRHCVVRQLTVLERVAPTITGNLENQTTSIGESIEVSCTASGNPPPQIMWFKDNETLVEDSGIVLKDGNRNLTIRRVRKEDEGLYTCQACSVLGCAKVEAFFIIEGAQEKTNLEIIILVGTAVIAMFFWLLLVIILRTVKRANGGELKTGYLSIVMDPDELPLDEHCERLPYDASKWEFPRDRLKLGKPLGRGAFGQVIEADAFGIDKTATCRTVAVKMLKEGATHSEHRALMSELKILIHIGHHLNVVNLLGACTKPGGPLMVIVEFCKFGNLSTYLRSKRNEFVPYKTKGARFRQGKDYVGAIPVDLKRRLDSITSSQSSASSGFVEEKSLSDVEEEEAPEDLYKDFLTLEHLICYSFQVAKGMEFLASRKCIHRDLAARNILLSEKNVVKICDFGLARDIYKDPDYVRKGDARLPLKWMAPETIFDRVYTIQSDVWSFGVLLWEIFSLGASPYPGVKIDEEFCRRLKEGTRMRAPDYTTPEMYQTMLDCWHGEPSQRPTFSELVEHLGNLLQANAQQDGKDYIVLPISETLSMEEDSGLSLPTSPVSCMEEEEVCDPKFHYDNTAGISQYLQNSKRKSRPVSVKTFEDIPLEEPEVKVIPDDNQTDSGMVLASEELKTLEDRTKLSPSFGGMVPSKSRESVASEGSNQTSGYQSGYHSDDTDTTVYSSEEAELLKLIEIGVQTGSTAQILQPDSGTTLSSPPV
Sequence of VEGFR3 (FLT4) (P35916 25-1363): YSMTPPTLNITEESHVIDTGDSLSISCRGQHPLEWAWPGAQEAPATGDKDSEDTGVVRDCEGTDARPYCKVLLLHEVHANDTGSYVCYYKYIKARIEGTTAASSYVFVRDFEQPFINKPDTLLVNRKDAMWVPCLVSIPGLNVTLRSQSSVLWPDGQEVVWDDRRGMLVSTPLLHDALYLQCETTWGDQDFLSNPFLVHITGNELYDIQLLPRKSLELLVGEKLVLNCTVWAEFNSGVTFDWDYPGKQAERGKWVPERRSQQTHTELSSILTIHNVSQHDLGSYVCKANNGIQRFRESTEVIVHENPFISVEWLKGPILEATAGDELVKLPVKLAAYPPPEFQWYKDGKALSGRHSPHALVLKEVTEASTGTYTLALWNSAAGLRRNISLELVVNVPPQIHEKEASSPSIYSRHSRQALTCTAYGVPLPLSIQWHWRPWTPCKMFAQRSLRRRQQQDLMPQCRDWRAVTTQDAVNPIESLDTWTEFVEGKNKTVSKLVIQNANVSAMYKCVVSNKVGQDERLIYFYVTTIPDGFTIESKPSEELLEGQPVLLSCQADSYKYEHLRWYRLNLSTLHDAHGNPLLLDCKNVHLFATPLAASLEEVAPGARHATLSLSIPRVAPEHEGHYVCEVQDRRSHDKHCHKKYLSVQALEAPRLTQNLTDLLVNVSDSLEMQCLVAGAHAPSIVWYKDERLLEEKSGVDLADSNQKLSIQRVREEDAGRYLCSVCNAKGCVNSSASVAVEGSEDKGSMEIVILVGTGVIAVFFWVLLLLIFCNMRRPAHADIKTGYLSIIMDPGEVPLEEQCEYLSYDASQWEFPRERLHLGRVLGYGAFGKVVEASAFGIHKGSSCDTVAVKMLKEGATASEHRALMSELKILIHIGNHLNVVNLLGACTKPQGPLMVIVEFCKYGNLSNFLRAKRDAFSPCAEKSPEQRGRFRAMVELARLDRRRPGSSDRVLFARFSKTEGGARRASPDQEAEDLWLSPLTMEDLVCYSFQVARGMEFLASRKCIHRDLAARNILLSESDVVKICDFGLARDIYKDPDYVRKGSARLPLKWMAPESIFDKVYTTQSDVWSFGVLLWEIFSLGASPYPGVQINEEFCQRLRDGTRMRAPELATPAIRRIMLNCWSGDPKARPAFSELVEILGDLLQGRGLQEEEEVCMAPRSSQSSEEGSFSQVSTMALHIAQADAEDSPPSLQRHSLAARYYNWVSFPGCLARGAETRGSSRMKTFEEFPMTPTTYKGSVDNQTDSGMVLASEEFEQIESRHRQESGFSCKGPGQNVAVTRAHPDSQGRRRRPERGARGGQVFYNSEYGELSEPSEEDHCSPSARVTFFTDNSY
Sequence of VEGFR1 (FLT1) (P17948 27-1338): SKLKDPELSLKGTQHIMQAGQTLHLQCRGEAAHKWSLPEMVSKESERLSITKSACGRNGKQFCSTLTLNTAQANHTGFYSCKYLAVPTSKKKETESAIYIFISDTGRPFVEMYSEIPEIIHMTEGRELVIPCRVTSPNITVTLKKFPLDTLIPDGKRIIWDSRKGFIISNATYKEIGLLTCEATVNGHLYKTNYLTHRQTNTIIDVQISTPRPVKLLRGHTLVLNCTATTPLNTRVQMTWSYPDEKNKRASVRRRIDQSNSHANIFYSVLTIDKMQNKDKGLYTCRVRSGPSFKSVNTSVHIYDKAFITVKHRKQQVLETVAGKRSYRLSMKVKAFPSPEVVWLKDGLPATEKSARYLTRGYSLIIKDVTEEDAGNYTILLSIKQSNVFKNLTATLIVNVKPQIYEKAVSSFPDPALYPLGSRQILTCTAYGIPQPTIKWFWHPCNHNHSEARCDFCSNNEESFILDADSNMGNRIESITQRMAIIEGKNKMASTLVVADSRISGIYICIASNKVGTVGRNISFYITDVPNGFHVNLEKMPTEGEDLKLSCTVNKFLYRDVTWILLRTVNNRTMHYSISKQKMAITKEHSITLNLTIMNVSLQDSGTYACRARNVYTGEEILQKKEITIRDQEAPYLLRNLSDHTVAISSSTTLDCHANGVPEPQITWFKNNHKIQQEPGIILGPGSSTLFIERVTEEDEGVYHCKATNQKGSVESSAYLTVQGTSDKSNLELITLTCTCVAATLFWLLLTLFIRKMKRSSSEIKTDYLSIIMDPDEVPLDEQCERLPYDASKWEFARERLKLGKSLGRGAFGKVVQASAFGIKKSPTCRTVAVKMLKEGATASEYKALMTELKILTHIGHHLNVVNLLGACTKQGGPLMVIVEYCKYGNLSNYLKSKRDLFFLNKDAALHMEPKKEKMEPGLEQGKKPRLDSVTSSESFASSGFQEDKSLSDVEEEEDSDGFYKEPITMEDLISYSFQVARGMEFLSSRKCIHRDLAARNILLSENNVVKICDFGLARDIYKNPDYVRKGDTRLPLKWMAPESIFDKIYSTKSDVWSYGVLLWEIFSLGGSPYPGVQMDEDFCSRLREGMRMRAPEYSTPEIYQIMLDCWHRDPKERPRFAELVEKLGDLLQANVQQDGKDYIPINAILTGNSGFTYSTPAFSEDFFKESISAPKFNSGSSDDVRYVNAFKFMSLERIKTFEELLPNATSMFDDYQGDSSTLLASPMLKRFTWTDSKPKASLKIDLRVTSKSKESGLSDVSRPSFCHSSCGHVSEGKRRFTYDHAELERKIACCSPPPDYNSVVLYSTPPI
Sequence of hERG potassium channels (Q12809 whole entry): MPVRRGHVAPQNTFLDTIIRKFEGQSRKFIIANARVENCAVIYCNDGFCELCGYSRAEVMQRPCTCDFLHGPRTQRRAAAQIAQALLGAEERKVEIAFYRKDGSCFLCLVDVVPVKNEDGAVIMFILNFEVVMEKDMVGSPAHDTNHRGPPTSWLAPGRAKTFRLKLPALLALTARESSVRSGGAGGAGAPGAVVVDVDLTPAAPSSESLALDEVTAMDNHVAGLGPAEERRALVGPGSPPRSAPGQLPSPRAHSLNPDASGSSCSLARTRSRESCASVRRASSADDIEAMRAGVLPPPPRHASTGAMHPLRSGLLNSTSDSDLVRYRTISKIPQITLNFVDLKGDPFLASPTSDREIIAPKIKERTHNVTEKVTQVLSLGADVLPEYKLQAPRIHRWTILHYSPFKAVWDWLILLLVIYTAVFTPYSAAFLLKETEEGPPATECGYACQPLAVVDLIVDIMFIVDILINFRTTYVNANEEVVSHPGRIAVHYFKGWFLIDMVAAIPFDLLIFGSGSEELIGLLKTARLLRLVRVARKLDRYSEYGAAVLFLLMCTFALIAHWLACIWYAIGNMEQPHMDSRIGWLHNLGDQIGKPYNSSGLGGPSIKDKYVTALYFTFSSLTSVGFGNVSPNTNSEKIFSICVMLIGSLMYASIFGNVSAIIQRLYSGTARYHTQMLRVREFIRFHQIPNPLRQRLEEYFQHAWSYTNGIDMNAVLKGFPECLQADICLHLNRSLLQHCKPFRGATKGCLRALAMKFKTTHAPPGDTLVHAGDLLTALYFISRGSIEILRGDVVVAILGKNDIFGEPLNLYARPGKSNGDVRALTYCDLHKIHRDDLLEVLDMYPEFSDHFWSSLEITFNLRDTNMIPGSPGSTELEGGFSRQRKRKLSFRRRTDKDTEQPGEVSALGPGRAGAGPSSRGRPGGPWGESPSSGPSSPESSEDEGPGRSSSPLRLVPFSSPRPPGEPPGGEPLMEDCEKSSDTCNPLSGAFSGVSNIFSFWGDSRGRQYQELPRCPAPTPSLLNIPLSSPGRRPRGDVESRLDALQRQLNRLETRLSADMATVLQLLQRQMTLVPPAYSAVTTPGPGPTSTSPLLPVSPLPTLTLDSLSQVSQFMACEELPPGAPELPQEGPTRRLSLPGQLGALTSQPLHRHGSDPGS

Regarding `N#CCOc1cc2nccc(Oc3c(F)cc(NC(=O)NC4CC4)c(Cl)c3F)c2cc1C(N)=O` [IIIb-58], the IC50 was less than 5 nM in series [1]; less than 2500 nM in series [2]; 5000 to 10000 nM in series [3]; less than 5 nM in [5]; less than 5000 nM in series [6]; less than 5000 nM in series [7]. Moreover, the IC50 in series [8] was less than 5000 nM; in series [9], less than 50 nM; in series [10], greater than 30000 nM; in series [11] it was less than 5000 nM; in [12] it was less than 5 nM; in [14], less than 2500 nM. Further, the figures for the IC50 in [15] and in series [16] were less than 2500 nM and less than 5 nM, respectively. Moreover, in [4], the “MTD toxicity test, clinical outcome” value is reported as “no abnormalities such as death”. In series [4], the “autopsy results of organs” value is listed as “did not reveal any abnormal changes”. In series [13], the “tumor suppression rate of subcutaneous tumors” value (“tumor suppression rate” for short) is 80-110%.

In the case of `NC(=O)c1cc2c(Oc3c(F)cc(NC(=O)NC4CC4)c(Cl)c3F)ccnc2cc1OCCO` [IIIb-60], the concentration for half-maximal inhibition (IC50) in series [1] was less than 5 nM; in series [2], less than 2500 nM; in [3] it was 5000 to 10000 nM; in series [5] it was less than 5 nM; in series [6], less than 5000 nM; in series [7], less than 5000 nM. The half-inhibitory concentration (IC50) is less than 5000 nM in [8]; less than 50 nM in series [9]; greater than 30000 nM in [10]; less than 5000 nM in series [11]; less than 5 nM in series [12]; less than 2500 nM in series [14]. Also, the 50% inhibitory concentration (IC50) in series [15] is less than 2500 nM; in series [16], less than 5 nM. Besides, the “MTD toxicity test, clinical outcome” value in [4] is on record as “no abnormalities such as death”. Besides, the “autopsy results of organs” value in [4] is on record as “did not reveal any abnormal changes”. Besides, in series [13], the “tumor suppression rate” value is 80-110%.

Take `NC(=O)c1cc2c(Oc3c(F)cc(NC(=O)NC4CC4)c(Cl)c3F)ccnc2cc1OCC1(N)CC1` [IIIb-61]: the IC50 was less than 5 nM in [1]; less than 2500 nM in series [2]; 5000 to 10000 nM in [3]; less than 5 nM in [5]; less than 5000 nM in series [6]; less than 5000 nM in [7]. The half-inhibitory concentration (IC50) was less than 5000 nM in series [8]; less than 50 nM in [9]; greater than 30000 nM in [10]; less than 5000 nM in series [11]; less than 5 nM in series [12]; less than 2500 nM in series [14]. The figures for the IC50 in series [15] and in series [16] were less than 2500 nM and less than 5 nM, respectively. The “MTD toxicity test, clinical outcome” value in series [4] was “no abnormalities such as death”. Also, the “autopsy results of organs” value in series [4] was “did not reveal any abnormal changes”. Also, in [13], the “tumor suppression rate” value is given as 80-110%.

In the case of `N#CCCOc1cc2nccc(Oc3c(F)cc(NC(=O)NC4CC4)c(Cl)c3F)c2cc1C(N)=O` [IIIb-65], the concentration for half-maximal inhibition (IC50) was less than 5 nM in [1]; less than 2500 nM in [2]; 5000 to 10000 nM in series [3]; less than 5 nM in [5]; less than 5000 nM in [6]; less than 5000 nM in series [7]. Also, the half-inhibitory concentration (IC50) in [8] was less than 5000 nM; in series [9] it was less than 50 nM; in [10] it was greater than 30000 nM; in series [11], less than 5000 nM; in series [12], less than 5 nM; in series [14], less than 2500 nM. Also, the IC50 in [15] was less than 2500 nM; in [16], less than 5 nM. Besides, the “MTD toxicity test, clinical outcome” value in [4] is listed as “no abnormalities such as death”. In series [4], the “autopsy results of organs” value was “did not reveal any abnormal changes”. Besides, in series [13], the “tumor suppression rate” value is on record as 80-110%.
